In PMC4838876, “Multivalent display of minimal Clostridium difficile glycan epitopes mimics antigenic properties of larger glycans” (Nature Communications, 2016):

Key:
mAb 2C5 = assay: Isothermal titration calorimetry (ITC); format: binding, mouse
Experimental: Figure 7 IM and thermodynamic analysis of glycan–mAb interactions and conformation of 1. (a) IM analysis. The heat maps represent on- and off-rates of mAb 2C5 to 1 (upper) and 3 (lower). (b) Thermograms acquired using 7 μM of mAb 2C5 and titrating 250 μM of 1 (left) or 3 mM of 3 (right) at 25 °C. Thermodynamic parameters were inferred by nonlinear least-square fits of the data points. (c) Summary of thermodynamic parameters for 1 and 3 interacting with mAbs 2C5 and 10A1. Bars represent mean±s.e.m. of two independent measurements. See Supplementary Fig. 6 for details. (d) One-dimensional proton NMR spectrum, and 2D zTOCSY and NOE spectroscopy (NOESY) NMR spectra of 1 showing the coupled protons to the anomeric protons of the five residues with numbering according to the structure shown in e. Blue circles mark cross-peaks that appear in the NOESY spectrum, whereas not showing a corresponding peak in the zTOCSY. These peaks were marked as inter-residue NOEs and labelled by residue number and proton name. […]
Assuming that 1 had more interactions with the binding pockets, association with 1 would liberate more water molecules during complex formation than 3, thereby producing a more favourable entropy. To investigate this, thermodynamic parameters of mAb interactions with 1 and 3 were measured by ITC (Fig. 7b). […]

mAb 10A1 = assay: STD-NMR epitope mapping; format: binding, mouse; settings: 200 μM ligand, 2 μM antibody
Text: To understand antibody binding at molecular-level detail and to identify the functional groups involved in antibody binding, we performed STD-NMR measurements. […] The glucose moiety in 3 contributed weakly to antibody binding around H3 (11%). Despite the low saturation transfer, this interaction appears to be important for antibody binding, as mono-rhamnose 4 was not or only weakly bound by the mAbs in glycan microarray and SPR experiments.
Figure 6 Epitope mapping of glycan–mAb interactions by STD-NMR. (a,b) Recognition of disaccharide 3 by mAb 10A1 shown as Lewis structure and three-dimensional model calculated with Glycam[70]. Colours indicate percentages of STD effects. (c) Recognition patterns of 3 by three mAbs. STD spectra were acquired at 2 s saturation transfer time in the presence of mAbs 2C5, 10A1 and 10D6 (from top to bottom). (d) Competition of trisaccharide 2 by pentasaccharide 1.
Before the STD-NMR studies, proton resonances of oligosaccharides 1–3 were assigned using standard one-dimensional proton spectra, as well as 2D total correlation spectroscopy (2D-TOCSY), correlation spectroscopy, ^1H–^13C heteronuclear single quantum coherence and ^1H–^13C heteronuclear multiple bond correlation spectra at concentrations varying between 5 and 20 mM in D2O. All NMR studies were measured at 298 K on a Varian PremiumCOMPACT 600 MHz spectrometer equipped with a OneNMR probe. For STD-NMR, samples contained 200 μM ligand and 2 μM antibody in 40 mM phosphate buffer (pH 7.0, uncorrected). On-resonance irradiation was set to −0.5 p.p.m. and off-resonance irradiation was set to 80 p.p.m. A 35-ms T1ρ spin-lock filter and a W5 WATERGATE for solvent suppression were applied. The saturation pulse train consisted of a series of Gaussian shaped pulses of 50 ms duration and 1 ms interpulse delay with an irradiation power of 85 Hz. A total of 2,048 scans were recorded. STD-NMR spectra of carbohydrates in the absence of antibody and spectra of antibody only served as negative controls. Here, saturation and relaxation times were set to 2 and 6 s, respectively. STD build-up curves for mAb 10A1 were recorded at saturation transfer times of 0.5, 1, 2, 4 and 6 s, adjusting the prescan delay accordingly. Epitopes for mAbs 2C5 and 10D6 were recorded with a saturation transfer time of 2 s. NMR spectra were processed in MestReNova 9.1 (MestreLab) and data were analysed in OriginPro9 (OriginLab) to obtain the binding epitopes according to Mayer and James[28]. For the competition experiments, 1 was added to samples of 3 or 2 to a final concentration of 200 μM applying a saturation transfer time of 2 s.

| Compound | binding stoichiometry (mAb 2C5) | normalized STD effect, glucose H3 (mAb 10A1) [%] | normalized STD effect, rhamnose H2 (mAb 10A1) [%] | normalized STD effect, rhamnose H3 (mAb 10A1) [%] | normalized STD effect, rhamnose methyl protons H6, H'6 and H''6 (mAb 10A1) [%] |
| --- | --- | --- | --- | --- | --- |
| C[C@@H]1O[C@@H](O[C@@H]2[C@@H](O)[C@H](O[C@H]3[C@H](O[C@@H]4O[C@@H](C)[C@H](O)[C@@H](O)[C@H]4O)[C@@H](O)[C@@H](O[C@H]4[C@@H](OCCCCCN)O[C@H](CO)[C@@H](O)[C@@H]4O)O[C@@H]3CO)O[C@H](CO)[C@H]2O)[C@H](O)[C@H](O)[C@H]1O [Compound 1] | 2.2 |  |  |  |  |
| C[C@@H]1O[C@@H](O[C@@H]2[C@@H](O)[C@H](OCCCCCN)O[C@H](CO)[C@H]2O)[C@H](O)[C@H](O)[C@H]1O [Compound 3, Rha-(1→3)-Glc] |  | 11 | 78 | 99 | 100 |
